In patent publication US20250376466A1, “ESTER COMPOUNDS AND USE THEREOF” (NANJING REJU THERAPEUTICS, CO., LTD., priority 2022, published 2025):

Tests used:
diabetic retinopathy = assay: Mouse model of diabetic retinopathy (STZ), Evans blue penetration; type: in vivo; conditions: intravitreal (IVT), 1 μL of 200 μM at 8 and 9 weeks after STZ; Evans blue at 10 weeks; FIG. 4
Description: The efficacy of the compounds of the present disclosure was studied in a mouse model of diabetic retinopathy by multiple administrations of streptozotocin (STZ). C57BL/6J mice at 6 to 7 weeks were weighed and their baseline blood glucose was measured (Sino). STZ (Sigma-Aldrich) was injected intraperitoneally into the mice at 55 mg/Kg for five consecutive days. Age-matched controls were injected with buffer only. Blood glucose was measured again one week after the last STZ injection. 1 μL of the test compound (200 μM, a suspension formulated in 0.015% polysorbate 80, 0.2% sodium phosphate, 0.75% sodium chloride, pH 7.2) was injected intravitreally into the STZ-treated diabetic C57BL/6J mice at 8 and 9 weeks after STZ administration. 10 weeks after STZ treatment, the retinal Evans blue penetration assay was performed.

hypertrophic scars = assay: Rabbit ear hypertrophic scar model; type: in vivo, New Zealand white rabbits; conditions: 150 μM, 100 μL injected into lesion once a week, 4 injections, from postoperative Day 14; FIG. 12
Description: In this example, the efficacy of the compounds of the present disclosure was tested on hypertrophic scars in a rabbit ear hypertrophic scar animal model. Briefly, 10 New Zealand white rabbits, male, 3 months old, were used. The New Zealand rabbits were anaesthetized with sodium pentobarbital and six circular full-thickness wounds with a diameter of 10 mm were made on the ventral surface of each ear by removing the epidermis, dermis and perichondrium to expose the cartilage. The rabbits were randomly divided into control and RZ001 experimental groups. On postoperative Day 14, after complete re-epithelialization of the wound surface, the compound (150 μM, 100 μL, dissolved in DMSO solution) or negative control DMSO 100 μL was injected into the center of each lesion from the wound edge once a week for a total of 4 injections. Improvement of scar formation by the compound was assessed by SEI (Scar Excess Index).

Alzheimer's disease = assay: APP×PS1 transgenic mouse model of Alzheimer's disease; type: in vivo; conditions: intraperitoneal injection, twice a week, 11 consecutive weeks; cerebral cortex; FIG. 8
Description: In this example, the efficacy of the compounds of the present disclosure was tested on Alzheimer's disease in an animal model of Alzheimer's disease. Briefly, a transgenic mouse model of APP×PS1 (purchased from Cyagen Biosciences) was selected and the compound of the present disclosure was administered by intraperitoneal injection for 11 consecutive weeks, twice a week. Alterations in amyloid in the cerebral cortex of the mice were observed.

[1] = tested on: senescent A549 cells, IMR90 cells, RPE cells, mouse chondrocytes, mouse skin fibroblasts; assay: Cell viability of senescent cells (CellTiter-Glo); type: cell-based, human; conditions: 1 μM, 72 hours; etoposide (10 μM)-induced senescent cells; FIGS. 2A to 2E
Description: (§1) In this example, human non-small cell lung cancer cell line (A549 cells), human embryonic lung fibroblast cell line (IMR90 cells), human retinal pigment epithelial cells (RPE cells), mouse chondrocytes, and mouse skin fibroblasts were selected. The cells above were induced to obtain senescent cells by etoposide (10 μM). The effect of the target compounds RZ001-RZ006 and RZ201 on the viability of normal and senescent cells above was detected, thereby evaluating the specific killing effect of the prodrugs RZ001-RZ006 and RZ201 on senescent cells above.
(§2) Briefly, senescent and normal cells above were selected and plated separately (96-well plates). After adding the compounds RZ001-RZ006 and RZ201 (concentration: 1 μM) for 72 hours, CellTiter-Glo® Luminescent Cell Viability Assay Kit (Promega) was used to detect cell viability, and the results were shown in FIGS. 2A to 2E.

[2] = tested on: normal A549 cells, IMR90 cells, RPE cells, mouse chondrocytes, mouse skin fibroblasts; assay: Cell viability of normal cells (CellTiter-Glo); type: cell-based, human; conditions: 1 μM, 72 hours, FIGS. 2A to 2E
Description: as §1, §2

[3] = tested on: oxygen-induced retinopathy (OIR); assay: Mouse model of oxygen-induced retinopathy (OIR); type: in vivo; conditions: intravitreal (IVT), 1 μl of 200 μM at P12, retinas at P17, IB4 staining; FIG. 3
Description: The efficacy of the prodrugs RZ001-RZ006 as well as RZ201 were investigated in a mouse model of oxygen-induced retinopathy (OIR) which to some extent indicates an in vivo model of retinopathy of prematurity (ROP), diabetic retinopathy, and wet age-related macular degeneration. From postnatal Day 7 (P7) to Day 12 (P12), C57Bl/6 mouse pups and their CD1 foster mothers were exposed to hyperoxia (75% O2). At P12, the animals were injected intravitreally with 1 μl of the test composition formulated in 1% DMSO, 10% Tween 80, and 20% PEG-400 (200 μM the compound) and returned to room air until Day 17 (P17). On P17, the eyeballs were enucleated and the retinas were dissected for vascular staining. To determine the area of avascularity or angiogenesis, the retinas were flattened and stained with isolectin B4 (IB4).

SMILES | vascular permeability in both the retinal and choroidal vascular leakage (diabetic retinopathy) | scar excess index (SEI) (hypertrophic scars) | Aβ42 pathogenic protein indicators (Alzheimer's disease) | cytotoxicity against senescent cells (cell viability) [1] | cytotoxicity against normal cells (cell viability) [2] | angiogenesis [3] | avascular zone [3]
Cc1c(-c2ccc(N3CCc4cccc(C(=O)Nc5nc6ccccc6s5)c4C3)nc2C(=O)OCOC(=O)C(C)C)cnn1CC12CC3CC(CC(C3)C1)C2 [RZ001] | improved vascular permeability | statistically significant improvement | statistically significant improvements |  |  |  | 
Cc1oc(=O)oc1COC(=O)c1nc(N2CCc3cccc(C(=O)Nc4nc5ccccc5s4)c3C2)ccc1-c1cnn(CC23CC4CC(CC(C4)C2)C3)c1C [RZ201] | improved vascular permeability |  | statistically significant improvements | cytotoxicity primarily against senescent cells | without significant killing effects on normal cells | statistically significant improvements | statistically significant improvements
